# “Also recorded” adds a separate entry of the source.
# Tests used:
# [1] = test system: piglets; experiment: Larger pig trial: feed conversion ratio (FCR) (Example 8); format: in vivo, pig (DanBred x Duroc); settings: for Feed conversion ratio (FCR) versus negative control: 42 days trial
# Source text: In this regard, the food/feed conversion ratio (FCR) is defined as the ratio between the amount of food eaten by an animal to the output produced by the animal (e.g. amount of meat produced by a pig, amount of milk produced by a cow etc.). Food that is efficiently taken up and converted by the body of the animal to said output obtains a FCR-value lower than a food having a low uptake in the animal. Thus, lower FCR-values are preferred for most applications. In some sectors, feed efficiency, which is the output divided by the input (i.e. the inverse of FCR), is used.
# (§1) Trial with 360 barrows and female piglets (DanBred×Duroc; initial BW of about 6.8 kg).
# (§2) Age when trial started approx. 7 days and trial ended after 42 days. They weighed approx. 7 kg initially and have been feed as per normal conventional diet for piglets until delivery.
# (§3) Basal diets as per standard industry feed: • Prestarter diet for post-weaning piglets: 7.0 to 9.0 kg BW • Starter diet for piglets: 9.0 to 15.0 kg BW • Grower diet for piglets: 15.0 to 30.0-35.0 kg BW.
# (§4) Isosteviol >97% was produced in-house. Isosteviol may be produced by acid-catalysed extraction of Stevia rebaudiana L. Preferably at a pH below 5.5.
# (§5) • Negative control: No isosteviol • Treatment 1 (IS10): 1% isosteviol mg/kg Bodyweight (BW) • Treatment 2 (IS13): 1.3% isosteviol mg/kg Bodyweight (BW)
# (§6) The pigs were fed standard diets supplemented with Isosteviol as outlined above.
# (§7) IsoSteviol Premix 0.71% was produced in Vilofoss Premix factory, and included at 0.29/0.37, 0.25/0.33% (by weight) in complete feed to reach 1/1.3 mg IsoSteviol/kg BW (bodyweight).
# (§8) The piglets were randomly distributed in 10 pigsties per treatment when trial started. Food and water were provided ad libitum. The farmer was not aware of which groups received which additional feed, since all feeds were masked to look the same and the control group received a bag similar to the other groups.
# [2] = test system: pigs; experiment: Stool firmness / diarrhea in pigs (Example 4); format: in vivo, pig (Danish Landrace); settings: groups receiving isosteviol (IPG and IG) compared to control groups (CG and CPG)
# [3] = test system: pigs; experiment: Meat (muscle) percentage at slaughter, ultrasound Autoform (Example 5); format: in vivo, pig (Danish Landrace); settings: FIG. 5-6
# Method: See also previous examples.
# Meat percentage is measured when the pig is dead. The body is prepared and send to an automatic equipment that measures fat/meat thicknesses based on ultrasound measurements called an Autoform. The equipment is certified by third party and the meat percentages in this study was performed by Tican A/S at the slaughterhouse in Brdrup.
# Increased meat (muscle) percentage can also be considered to correspond to an increased muscle/fat ratio.
# [4] = test system: pigs; experiment: Overall uptake of feed judged by generated manure and stool analysis (Example 3); format: in vivo, pig (Danish Landrace)
# Method: See example 1. Overall uptake of feed was determined by the amount of generated manure by the different groups.
# [5] = test system: pigs; experiment: Pig feeding trial: growth rate / weight gain (Example 2); format: in vivo, pig (Danish Landrace); settings: for Average weight (kg) start: baseline; for Net growth vs. CG group / Net growth vs. CPG group: index; for Net growth vs. CG group: CG = 100; for Net growth vs. CPG group: CPG = 100; for Average weight (kg) Increase: start to week 8
# Source text: Isosteviol in 97% purity was produced in-house. Isosteviol may be produced by acid-catalysed extraction of Stevia rebaudiana L. Preferably at a pH below 5.5.
# The pigs were of the type Danish Landrace Age approx. 90 days, gender equally distributed. They weighted approximately 30 kg when delivered and had been fed with a normal conventional diet for piglets until delivery.
# • Standard feed is home-blended by the farmer with the ratio: Wheat 55 w %, Barley 35 w %, Rye 10 w %. • Nutritional profile/100 g: • Nutritional content: 1313 KJ • Fat: 1.8 g • Carbohydrate: 68.9 g • Of which sugar: 1.4 g • Fibres: 15.8 g • Protein: 12.8 g • Supplementary feed: The Supplementary feed was distributed as a “Semi Soja 1920” composition (from DLG), which is a supplementary feed high in protein, carbohydrate, and free amino acids.
# as §8, with “pigs” for “piglets”, “the five” for “10”, “pigsties” for “pigsties per treatment”, “libitum (see Table 2).” for “libitum.”, “CG” for “control”
# Every other week the pigs were weighed, and their growth were noted. The pigs were attended too equally.
# Timeframe: Trial started after delivery of the 30 kg pigs and was planned to end when the pigs weighed around 115-118 kg, the weight at trial-end was however around 120 kg (11 weeks). Total time for production is 72 days.
# The food intake by each pig during the trial is described in Table 3.
# [6] = test system: pigs; experiment: Turnover rate: days to grow pigs from approx. 30 kg to around 118 kg (Example 6); format: in vivo, pig (Danish Landrace)
# Source text: See also previous examples. Turnover rates of the pigs was defined by the time (days) it takes to grow the pigs from approx. 30 kg to around 118 kg. Thus, turnover time is the time it takes to grow the pigs from approx. 30kg to their optimum slaughter weight. The faster the turnover rate is, the faster the pigs goes through the process and consequently this is the determination factor on how many pigs the farmer can deliver to the slaughterhouse within a year.
# [7] = test system: piglets; experiment: Larger pig trial: body weight / weight gain (Example 8); format: in vivo, pig (DanBred x Duroc); settings: for weight gain versus negative control: week 3-6 and week 1-6 / 42 days trial; for Body weight [kg] Mean SD 0 / Body weight [kg] Median SD 0: baseline
# Source text: as §1, §2, §3, §4, §5, §6, §7, §8
# [8] = test system: broiler chickens; settings: cited from earlier work
# [9] = Treatment 1 (IS10), 1 mg IsoSteviol/kg BW in feed
# [10] = Treatment 2 (IS13), 1.3 mg IsoSteviol/kg BW in feed
# [11] = IG group (standard feed incl. standard dose of supplementary feed + isosteviol 1 mg/kg/day), 8 pigs
# [12] = IPG group (standard feed + additional 10 w % supplementary feed + isosteviol 1 mg/kg/day), 9 pigs
# [13] = IG group (isosteviol only, 1 mg/kg/day)
# [14] = IPG group (additional 10 w % supplementary feed + isosteviol 1 mg/kg/day)
smiles,measurement,setting,value
C[C@@]12CC[C@@H]3[C@@](CC[C@H]4[C@@]3(C)CCC[C@@]4(C)C(=O)O)(CC1=O)C2 [isosteviol],Feed conversion ratio (FCR) versus negative control,"[1]; Treatment 1 (+Isosteviol), FIG. 12",significant decreased feed conversion ratio; also recorded: More than relevant superiority
same,Feed Conversion Ratio (FCR) Mean SD 42,[1]; [9],1.399
same,Feed Conversion Ratio (FCR) Median SD 42,[1]; [9],1.380
same,Feed conversion ratio (FCR) versus negative control,"[1]; Treatment 2 (+Isosteviol), FIG. 13",significant decreased feed conversion ratio; also recorded: More than relevant superiority
same,Feed Conversion Ratio (FCR) Mean SD 42,[1]; [10],1.393
same,Feed Conversion Ratio (FCR) Median SD 42,[1]; [10],1.360
same,stool firmness,[2],more firm; also recorded: much firmer stool
same,meat (muscle) percentage / muscle/fat ratio,[3]; IG group (isosteviol alone) vs control,very significant increase of the muscle weight; also recorded: increase
same,meat (muscle) percentage / muscle/fat ratio,[3]; IPG group (isosteviol + supplementary feed) vs control,increased their muscle/fat ratio to a significant degree; also recorded: increase
same,appearance of pigs noted by the farmer (muscle to fat ratio),[4]; IPG group compared to the control group,leaner and more firmly meaty
same,overall uptake of the feed (amount of generated manure),"[4]; isosteviol added to feed (IPG) vs CPG group, FIG. 4",higher overall uptake of the feed
same,decrease of the amount of nutritional ingredients in stool,"[4]; preliminary stool analysis, considering the quantity of manure discharged, data not shown",approx. 6%
same,growth exceeding that of control group (CG),"[5]; FIG. 1, Isosteviol and protein group (IPG) vs CG at index 100",4.0%
same,growth exceeding that of control+protein group (CPG),"[5]; FIG. 2, Isosteviol and protein group (IPG) vs CPG at index 100",5.8%
same,growth exceeding that of control group (CG),"[5]; FIG. 3, Isosteviol group (IG) vs CG at index 100",0.8%
same,Average weight (kg) week 8,[5]; [11],99.50 kg
same,weight gain compared to the Control (CG) group,"[5]; IG group, FIG. 3, in words",clear increased weight gain
same,Average weight (kg) week 8,[5]; [12],99.78 kg
same,weight gain compared to the control group (CG),"[5]; IPG group, FIG. 1, in words",clear increased weight gain
same,weight gain compared to the CPG group,"[5]; IPG group, FIG. 2, in words",clear increased weight gain
same,Average weight (kg) start,[5]; [11],35.00 kg
same,Average weight (kg) start,[5]; [12],33.11 kg
same,Net growth vs. CG group,[5]; [13],100.8
same,Net growth vs. CG group,[5]; [14],104.0
same,Net growth vs. CPG group,[5]; [13],102.71
same,Net growth vs. CPG group,[5]; [14],105.80
same,Average weight (kg) Increase,[5]; [13],64.50 kg
same,Average weight (kg) Increase,[5]; [14],66.67 kg
same,increase of yearly turnover in production vs CG group,"[6]; IG group, data not shown",0.1%
same,increase of yearly turnover rate in production vs CG group,"[6]; IPG group, FIG. 8",around 4.8%
same,weight gain versus negative control,"[7]; Treatment 1 (+Isosteviol), FIG. 10, p<0.0023","significant higher weight gain; also recorded: Observed relevant superiority, significant proven"
same,Body weight [kg] Mean SD 10,[7]; [9],11.568 kg
same,Body weight [kg] Mean SD 21,[7]; [9],15.783 kg
same,Body weight [kg] Mean SD 42,[7]; [9],32.660 kg
same,Body weight [kg] Median SD 10,[7]; [9],11.550 kg
same,Body weight [kg] Median SD 21,[7]; [9],15.900 kg
same,Body weight [kg] Median SD 42,[7]; [9],33.200 kg
same,weight gain versus negative control,"[7]; Treatment 2 (+Isosteviol), FIG. 11, p<0.0158","significant higher weight gain; also recorded: Observed relevant superiority, significant proven"
same,Body weight [kg] Mean SD 10,[7]; [10],11.574 kg
same,Body weight [kg] Mean SD 21,[7]; [10],15.558 kg
same,Body weight [kg] Mean SD 42,[7]; [10],32.293 kg
same,Body weight [kg] Median SD 10,[7]; [10],11.500 kg
same,Body weight [kg] Median SD 21,[7]; [10],15.600 kg
same,Body weight [kg] Median SD 42,[7]; [10],32.000 kg
same,Body weight [kg] Mean SD 0,[7]; [9],7.868 kg
same,Body weight [kg] Median SD 0,[7]; [9],7.850 kg
same,Body weight [kg] Mean SD 0,[7]; [10],7.865 kg
same,Body weight [kg] Median SD 0,[7]; [10],7.875 kg
C=C1C[C@@]23CC[C@H]4[C@@](C)(CCC[C@@]4(C)C(=O)O[C@@H]4O[C@H](CO)[C@@H](O)[C@H](O)[C@H]4O)[C@@H]2CC[C@]1(O[C@@H]1O[C@H](CO)[C@@H](O)[C@H](O)[C@H]1O[C@@H]1O[C@H](CO)[C@@H](O)[C@H](O)[C@H]1O)C3 [stevioside],effect on the broilers,[8]; fed orally to broiler chickens,no positive effect
same,abdominal fat content of the chicken,[8]; in a diet for broilers,significantly increased
